Assay results as given in US20100113602A1, “USE OF HISTONE DEACETYLASE INHIBITORS FOR THE TREATMENT OF CENTRAL NERVOUS SYSTEM METASTASES” (The United States of America,as represented by the …, priority 2007, published 2010).
pIC50: −log10 of the molar value. Read-outs that look alike come from different tables or passages of the source.

What was measured:
[1] = tested on: 231-BR cells; assay: MTT proliferation / colonization assay of 231-BR cells; assay type: cell-based, human; conditions: for Colonization Data, % Control: 231-BR cells, 72-hour incubation, SAHA 5 μM, depsipeptide 10 ng/mL, VPA 10 mM, TSA 100 ng/mL, ± standard deviation
Method: The prepared cells are plated at a density of 15,000 cells/well in a 96 well plate and incubated for 3 hours to permit attachment. Cells are then washed with PBS, and media containing either 0.1% or 1% FBS is added to the cells. […] After a 72-hour incubation, 0.5 mg/mL MTT (Sigma, St. Louis, Mo.) is added and plates are incubated for 2 hours. Media is then aspirated, and MTT dissolved in DMSO for 30 minutes, after which the absorbance is read at a wavelength of 570 nm. […] Data in Table 4 is shown as percent of colonies formed±standard deviation compared to untreated controls. Results are representative of three independent experiments in quintuplicate. Analysis of variance (ANOVA) is used to assess in vitro functions of vehicle treated versus vorinostat treated cells. P values can be two-tailed. Tests can be performed using GraphPad InStat version 3.0 software.

[2] = tested on: acetyl Histone H3, acetyl histone H4, p21; assay: Western blot of 231-BR cell lysates after HDI treatment; assay type: cell-based, human; conditions: 231-BR cells; depsipeptide 10 ng/mL or SAHA 5 μM; 0, 8, 24, 48 hours
Method: All cell lines are deemed free of mycoplasma and human pathogens and test negative in mouse antibody production (MAP) tests. […] Drug solution is added once at the beginning and left on the cells for the indicated duration (0, 8, 24, and 48 hours). Controls are performed in the same way with the same amount of vehicle solution for each drug, but without the drug. The vehicle can be DMSO. Cells are lysed according to standard procedures and Western blotting is performed. Primary antibodies specific to the targeted proteins are used including antibodies specific to acetyl Histone H3, acetyl histone H4, p21, and α-tubulin. Horseradish peroxidase-conjugated secondary antibodies purchased from Santa Cruz Biotechnology (Santa Cruz, Calif.) are used at dilutions of 1:5000. Proteins are visualized using enhanced chemilluminescence (Cell Signaling) and autoradiography. […] As histones H3 and H4 become hyperacetylated, protein levels of the cyclin-dependent kinase inhibitor p21 increase. Those changes indicate HDAC inhibition.

[3] = tested on: 231-BR cells; assay: 48-well Boyden chamber chemotaxis (motility) assay; assay type: cell-based, human; conditions: 24 hours drug treatment, 4 hours migration, SAHA 5 μM, depsipeptide 10 ng/mL, VPA 10 mM, TSA 100 ng/mL, ± standard deviation; for Motility Data, mean number of cells that migrate per well, 0.5% FCS: 0.5% FCS chemoattractant; for Motility Data, mean number of cells that migrate per well, Control: Control (no FCS chemoattractant)
Method: 231-BR Cells are used as described in Example 2. A 48-well Boyden chemotaxis chamber is used. Polycarbonate PVP-free Nucleopore filters (8 μm pore size) are coated with 0.01% collagen (BD Bioscience). […] Drug concentrations used are as described in Example 2. 231-BR cells, after 24 hours of vorinostat, other drug treatment, or control are added to the top chamber in DMEM with 1 mg/ml BSA at a concentration of 2×10^6 cells/ml. Chambers are incubated for 4 hours in a 37° C. incubator with 5% CO2. After chambers are disassembled, filters are fixed and stained with reagents from a Diff-Quik® Kit (Fischer Scientific). Cells that migrate through the Boyden chamber are counted using a light microscope. Representative areas are counted to determine the number of cells that have migrated for each well. Data in Table 5 are shown as mean number of cells±standard deviation that migrate per well. Analysis of variance (ANOVA) is used to assess in vitro functions of vehicle treated versus vorinostat treated cells. P values can be two-tailed. Tests can be performed using GraphPad InStat version 3.0 software.

[4] = tested on: MDA-MB-231-BR cells brain metastases; assay: Brain metastasis model, intracardiac MDA-MB-231-BR cells in nude mice (Example 5); assay type: in vivo, Balb/c nude mice; parameters: key to Mean Large Mets: mean no. of large metastases (>50 microns^2) per mouse; key to Mean Micromets: mean no. of metastases in 10 step sections of one hemisphere; conditions: for Mean Large Mets: large >50 microns^2
Method: Cells are prepared as described in Example 2 with additional preparation as follows. The retroviral vector pLEGFP-C1 (BD Biosciences, San Jose, Calif.) is transfected into murine fibroblast PT67 packaging cells using Effectene reagent according to the manufacturer's protocol (Qiagen, Germantown, Md.). After 24 hours, enhanced green fluorescent protein (EGFP)-expressing cells are selected in the presence of 1 mg/mL G418 (Invitrogen, Carlsbad, Calif.), and colonies are expanded. Virus is harvested and filtered through a 0.45 um Millex-HA syringe-driven filter (Millipore, Billerica, Mass.) and 231-BR cells are infected with retrovirus for 6 hours. The following day, 231-BR cells are selected in the presence of 0.8 mg/mL G418, and EGFP expression in 95-99% of the cells is confirmed by fluorescent microscopy.
All animal experiments are conducted under an approved Animal Use Agreement with the NCI. Under isoflurane anesthesia, 20 female Balb/c nude mice (Charles River Laboratories, Frederick, Md.) 5-7 weeks old are inoculated with 500,000 (Experiment 1) or 100,000 (Experiment 2) MDA-MB-231-BR cells in 0.1 mL PBS in the left ventricle of the heart. Mice are monitored daily for signs of ill health. Three days after tumor cell inoculation mice are randomized to treatment groups and treatment is started. […] After 21 days of treatment, mice are euthanized under CO2 anesthesia and brains are excised for imaging. EGFP is detected in whole brains by the Maestro 420 In Vivo Spectral Imaging System (Cambridge Research and Instrumentation, Woburn, Mass.), using software (e.g., Nuance Technology, Burlington, Mass.) to distinguish or unmix images of fluorescence from multiple sources. After imaging, mouse brains are bisected along the sagittal plane and the right hemisphere of the brain is fixed in 4% paraformaldehyde for 24-48 hours at 4° C., then transferred to 20% sucrose overnight at 4° C. and frozen (for EGFP detection/histology). The left hemisphere is forallin-fixed and paraffin embedded for immunohistochemistry. Ten micron brain sections are serially cut and processed for either EGFP microscopy or histology. To detect EGFP, slides are dried at room temperature and 25 uL Vectashield HardSet Mounting Media with DAPI was added (Vector Laboratories, Burlingame, Calif.). Images are captured on a Zeiss Axioskop 2 microscope (Thornwood, N.Y.) using OpenLab software (Improvision, Lexington, Mass.). For staining with hematoxylin and eosin, a standard protocol is followed. Ten serial sections every 300 microns through the brain are analyzed using a 5× objective on a Zeiss microscope, containing an ocular grid with squares of 0.8 mm^2.
Every micro- or large (>50 microns^2) metastasis in each section is tabulated. Data are representative of two experiments conducted. Wilcoxon rank sum test is used to compare the number of total metastases and the number of large metastases in vehicle treated versus vorinostat treated mice. Tests can be performed using GraphPad InStat version 3.0 software. “Mean Micromets” in Tables 6 and 7 refer to the mean number of metastases counted in 10 step sections from one hemisphere of the brain. “Mean Large Mets” in Tables 6 and 7 refer to the size of metastases determined by a 16 mm^2 ocular grid. Large metastases are greater than 50 microns^2.

[5] = mouse, in vivo
Method: All animal experiments are conducted under an approved Animal Use Agreement with the NCI. Under isoflurane anesthesia, 20 female Balb/c nude mice (Charles River Laboratories, Frederick, Md.) 5-7 weeks old are inoculated with 500,000 (Experiment 1) or 100,000 (Experiment 2) MDA-MB-231-BR cells in 0.1 mL PBS in the left ventricle of the heart. Mice are monitored daily for signs of ill health. Three days after tumor cell inoculation mice are randomized to treatment groups and treatment is started. […]. After 21 days of treatment, mice are euthanized under CO2 anesthesia and brains are excised for imaging. EGFP is detected in whole brains by the Maestro 420 In Vivo Spectral Imaging System (Cambridge Research and Instrumentation, Woburn, Mass.), using software (e.g., Nuance Technology, Burlington, Mass.) to distinguish or unmix images of fluorescence from multiple sources. […] Ten serial sections every 300 microns through the brain are analyzed using a 5× objective on a Zeiss microscope, containing an ocular grid with squares of 0.8 mm^2.
. […] “Mean Micromets” in Tables 6 and 7 refer to the mean number of metastases counted in 10 step sections from one hemisphere of the brain. “Mean Large Mets” in Tables 6 and 7 refer to the size of metastases determined by a 16 mm^2 ocular grid. […]

[6] = tested on: MDA-MB-231BR cells brain metastases; assay: Brain metastasis model, timing of SAHA administration (Example 6); assay type: in vivo, nude mice; conditions: for Large Metastases, Mean number per section: vehicle 7.65; for Micrometastases, Mean number per section: vehicle 170
Method: As described in Example 5, 175,000 MDA-MB-231BR cells in 0.1 mL PBS are injected into the left cardiac ventricle of the heart of nude mice. […] On day [X], mice are euthanized under CO2 anesthesia and brains are excised for imaging as described in Example 5.
Micro- and large (>50 microns^2) metastases are tabulated. The data set forth in Table 8 are representative of two experiments.

[7] = Homo sapiens, read-out: IC50 (growth inhibition, absorbance at 570 nm)
[8] = 150 mg/kg SAHA IP once daily starting on day 3 post-injection until day 21
[9] = 150 mg/kg SAHA IP once daily starting on day 7 post-injection until day 21
[10] = 150 mg/kg SAHA IP once daily starting on day 14 post-injection until day 21

With `C/C=C1\NC(=O)[C@H]2CSSCC/C=C/[C@H](CC(=O)N[C@H](C(C)C)C(=O)N2)OC(=O)[C@H](C(C)C)NC1=O` [Depsipeptide] the “Colonization Data, % Control” value [1] was 10 ± 2.5 % Control, the “dose at which noticeable inhibition occurs” value ([1]; 231BR cells) was ≥ 0.001 µg/mL and the IC50 [1, 7] was 1.5 µg/mL. The “acetylation of histones H3 and H4 (Western blot)” value [2] was “hyperacetylated”, the “protein levels of the cyclin-dependent kinase inhibitor p21 (Western blot)” value [2] was “increase” and the “Motility Data, mean number of cells that migrate per well, 0.5% FCS” value (“Motility Data … per well, 0.5% FCS” for short) [3] was 678 ± 33. For the same molecule, the “Motility Data, mean number of cells that migrate per well, Control” value (shortened to “Motility Data, mean number … per well, Control”) [3] was 129 ± 23.
In the case of `O=C(CCCCCCC(=O)Nc1ccccc1)NO` [SAHA, N-Hydroxy-N′-phenyloctanediamide], the “Mean Micromets” value ([4]; Experiment 1 (500,000 cells), 100 mg/kg SAHA IP once daily 21 days, vehicle 205.5) was 140.4, the “Mean Micromets” value ([4]; Experiment 1 (500,000 cells), 150 mg/kg SAHA IP once daily 21 days (lowered from 200 mg/kg), vehicle 205.5) was 151.8 and the “Mean Large Mets” value ([4]; Experiment 1, 100 mg/kg SAHA IP once daily 21 days, vehicle 6.8) was 2.9. The “Mean Large Mets” value ([4]; Experiment 1, 150 mg/kg SAHA IP once daily 21 days (lowered from 200 mg/kg), vehicle 6.8) was 3.5, the “Mean Micromets” value ([4]; Experiment 2 (100,000 cells), 100 mg/kg SAHA IP once daily 21 days, vehicle 72.5) was 78.3 and the “Mean Micromets” value ([4]; Experiment 2 (100,000 cells), 150 mg/kg SAHA IP once daily 21 days, vehicle 72.5) was 66.6. For the same molecule, the “Mean Large Mets” value ([4]; Experiment 2, 100 mg/kg SAHA IP once daily 21 days, vehicle 3.3) was 4.4, the “Mean Large Mets” value ([4]; Experiment 2, 150 mg/kg SAHA IP once daily 21 days, vehicle 3.3) was 1.5 and the “number of large (>50 micron^2) brain metastases, in words” value ([4]; in vivo, mice, IP SAHA vs vehicle) was “reduces the number”. The “Colonization Data, % Control” value [1] was 47 ± 1.9 % Control, the pIC50 [1, 7] was 4.90 and the “acetylation of histones H3 and H4 (Western blot)” value [2] was “hyperacetylated”. For the same molecule, the “toxicity of the higher dosage” value [5] was “toxicity”, the “Motility Data … per well, 0.5% FCS” value [3] was 756 ± 56 and the “Motility Data, mean number … per well, Control” value [3] was 67 ± 6. For the same molecule, the “Large Metastases, Mean number per section” value [6, 8] was 2.89, the “Micrometastases, Mean number per section” value [6, 8] was 122 and the “Large Metastases, Mean number per section” value [6, 9] was 4.94. The “Micrometastases, Mean number per section” value [6, 9] was 151, the “Large Metastases, Mean number per section” value [6, 10] was 5.96 and the “Micrometastases, Mean number per section” value [6, 10] was 171. For the same molecule, the “reduction in large metastases” value ([6]; 150 mg/kg SAHA starting on day 3 post-injection, vs vehicle, P<0.001) was 57%, the reduction in micrometastases ([6]; 150 mg/kg SAHA starting on day 3 post-injection, vs vehicle, P=0.017) was 28% and the “reduction (large metastases)” value ([6]; 150 mg/kg SAHA starting on day 7 post-injection, vs vehicle, P=0.008) was 34%. For the same molecule, the “reduction in large metastases” value ([6]; 150 mg/kg SAHA starting on day 14 post-injection, vs vehicle, not statistically significant) was 22%.
In the case of `CC(/C=C/C(=O)NO)=C\[C@@H](C)C(=O)c1ccc(N(C)C)cc1` [Trichostatin (TSA), trichostatin], the “Colonization Data, % Control” value [1] was 30 ± 3.4 % Control, the “Motility Data … per well, 0.5% FCS” value [3] was 785 ± 17 and the “Motility Data, mean number … per well, Control” value [3] was 108 ± 13.
For `CCCC(CCC)C(=O)O` [Valporic Acid, valproic acid], the “Colonization Data, % Control” value [1] was 46 ± 5.3 % Control, the “Motility Data … per well, 0.5% FCS” value [3] was 755 ± 37 and the “Motility Data, mean number … per well, Control” value [3] was 242 ± 55.
